Test results taken from patent US20230146795A1, “ENHANCEMENT OF ANTI-TUMOR ACTIVITY OF SHP2 INHIBITOR PYRIMIDINONE IN COMBINATION WITH NOVEL CANCER MEDICINES IN CANCERS” (TAIHO PHARMACEUTICAL CO., LTD., priority 2020, published 2023).

Tests used:
[1] = tested on: 394 cell lines that do not depend on KRAS; assay: In vitro cell line screening, 2D monolayers (CellTiter-Glo), KRAS-independent panel; format: cell-based, human; conditions: Non-KRAS panel, sensitive = maximum inhibition greater than 50% relative to DMSO, max 3 μM Compound 1, 1 μM Compound 9, 120-hour incubation
Method: (§1) Cells from human cancer cells lines (from commercial sources such as ATCC or ECCAC) were grown as 2D monolayers by seeding onto flat-bottom 96-well tissue culture plates (Corning). Cells were allowed to recover for 16-24 hours prior to compound treatment. Compounds or dimethyl sulfoxide (DMSO) were added at various combinations of compound concentrations in a final DMSO concentration of up to 0.5% (v/v). Following a total of 120-hour incubation, CellTiter-Glo reagent(registered trademark) (Promega) was added. Plates were incubated for 10 minutes with gentle shaking at room temperature to lyse the cells, then incubated for further 10 minutes at room temperature to stabilize luminescence signal. After mixing, the mixture was transferred to a fresh plate, and luminescence was determined on EnVision plate reader (Perkin Elmer).
(§2) For both 3D and 2D assays, the combination was tested as matrix of various concentrations of Compound 1 and Compound 9. The maximum concentrations of Compound 1 and Compound 9 used were 3 μM and 1 μM, respectively. Signals were normalized to that of the average of the DMSO control wells. […] For each cell line, the maximum % inhibition values were obtained for Compound 1 alone, Compound 9 alone and the combination of both compounds. The degree of drug interaction (i.e. synergy, additivity or antagonism) was quantified for each cell line by the Bliss independence model using the Synergyfinder R package (Ref: He L. et al. (2018) Methods for High-throughput Drug Combination Screening and Synergy Scoring. In: von Stechow L. (eds) Cancer Systems Biology. Methods in Molecular Biology, vol 1711. Humana Press, New York, N.Y.). For each cell line, a single score metric, the sum of synergy and antagonism across screened drug concentrations (SUM_SYN_ANT) (Ref: Di Veroli G. Y. et al (2016) Bioinformatics 32(18):2866-2868), was calculated. Synergy was defined as a score of 21 or above.

[2] = tested on: human pancreatic cancer cell line MIA PaCa-2 (KRAS mutation); assay: Antitumor effect on MIA PaCa-2 tumor subcutaneously implanted to CB17 SCID mouse; format: in vivo
Method: MIA PaCa-2 cell line carries KRAS mutation.
A human pancreatic cancer line, MIA PaCa-2 (available from American Type Culture Collection), suspended in a mixture of PBS and Matrigel was subcutaneously implanted to male CB17 SCID mice at 7-10 weeks of age (Charles River UK) at 5×10^6 cells/100 μl/mouse. Tumors were measured with a pair of digital calipers, and tumor volumes (TV) were calculated by applying the formula for ellipsoid. Mice with TV of 146 to 360 mm^3 were assigned to study groups such that average TV was equal among groups.
Oral administration of Compound 1 or its vehicle, and Compound 9 or its vehicle was started on Day 1. Compound 1 was dissolved in an acidified solution of 0.5% (w/v) hydroxypropyl methylcellulose (Sigma) and administered via oral gavage at 6 or 12 mg/kg/day. Compound 9 was suspended in 20% (v/v) PEG200 (Sigma) and 0.5% (w/v) methylcellulose (Sigma) and administered via oral gavage at 50 mg/kg/day. All treatments were given once a day for 21 consecutive days, except for the combination group receiving 12 mg/kg of Compound 1 and 50 mg/kg of Compound 9, in which the animals were treated for 5 days per week for 3 weeks.
Antitumor effects were evaluated by comparing the median relative tumor volumes (RTV) between control- and treated groups. RTV was calculated by dividing TV on any test day by TV on Day 1, expressed as a percentage. T/C (%), as a measure of anti-tumor activity, was calculated by dividing median RTV values of each compound-administered group by median RTV of the control group receiving both vehicles.

491 cell lines = assay: In vitro cell line screening, both panels overall; format: cell-based, human; conditions: Total panel, sensitive = maximum inhibition greater than 50% relative to DMSO, max 3 μM Compound 1, 1 μM Compound 9, 120-hour incubation
Method: as §1, with “as 3D cultures” for “as 2D monolayers”, “seeding cells into round-bottom ultra-low attachment” for “seeding onto flat-bottom”, “plates (Corning) followed by centrifugation.” for “plates (Corning).”, “CellTiter-Glo 3D Reagent(registered” for “CellTiter-Glo reagent(registered”, “further 40” for “further 10”, “fresh plate” for “fresh plate,”
as §1, §2

[3] = tested on: 97 cell lines harboring driver mutations in KRAS; assay: In vitro cell line screening, 3D cultures (CellTiter-Glo 3D), KRAS panel; format: cell-based, human; conditions: sensitive = maximum inhibition greater than 50% relative to DMSO, max 3 μM Compound 1, 1 μM Compound 9, 120-hour incubation
Method: The effect of Compound 1 in combination with an ERK inhibitor, Compound 9, on 97 cell lines harboring driver mutations in KRAS (G12A, G12C, G12F, G12R, G12S, G12V, G13C, G13D, A59G, Q61H, Q61K, Q61L or A146T) was assessed using the following technique. Cells from human cancer cells lines (from commercial sources such as ATCC or ECCAC) were grown as 3D cultures by seeding cells into round-bottom ultra-low attachment 96-well tissue culture plates (Corning) followed by centrifugation. Cells were allowed to recover for 16-24 hours prior to compound treatment. Compounds or dimethyl sulfoxide (DMSO) were added at various combinations of compound concentrations in a final DMSO concentration of up to 0.5% (v/v). Following a total of 120-hour incubation, CellTiter-Glo 3D Reagent(registered trademark) (Promega) was added. Plates were incubated for 10 minutes with gentle shaking at room temperature to lyse the cells, then incubated for further 40 minutes at room temperature to stabilize luminescence signal. After mixing, the mixture was transferred to a fresh plate and luminescence was determined on EnVision plate reader (Perkin Elmer).
as §2

[4] = tested on: pERK levels in HCC827 cells; assay: Cellular pERK inhibition assay (In-Cell Western); format: cell-based; conditions: Homo sapiens, relative IC50
Method: pERK levels were determined using the In-Cell Western assay. HCC827 cells (ATCC, Manassas, USA) were seeded into 384-well plates at a density of 1×10^4 cells/well in RPMI1640 medium supplemented with 10% FBS and incubated 24 h. Compounds were diluted first in DMSO and then into serum-free medium, before being added to cells in quadruplicate to give a final concentration of 0.2% DMSO. Plates were incubated at 37° C. for the indicated time in a humidified atmosphere of 5% CO2 in air.
Following compound treatment, cells were fixed with formalin neutral buffer solution for 20 minutes at room temperature. Plates were washed three times with 0.1% Triton-X in PBS and cells were blocked for 1 hour with Odyssey blocking buffer (LI-COR, #927-40000). […] Levels of pERK were then expressed as percent of control, using DMSO treated samples as control. The relative IC50 values were calculated in quadruplicate from the normalized dose-response plots using four parameter logistic curve fit. The Experiment for each compound was carried out in one time or multiple times, and the IC50 values were shown as a single value (for a compound measured in a single experiment) or an average value (for a compound measured in multiple experiments).

SHP2 = target: T1, SHP2 (Homo sapiens, UniProt Q06124); assay: SHP2 biochemical assay (DiFMUP conversion); conditions: 10 pM SHP2, 0.25 μM pIRS1 peptide, 50 μM DiFMUP
T1 sequence (Q06124 1-593): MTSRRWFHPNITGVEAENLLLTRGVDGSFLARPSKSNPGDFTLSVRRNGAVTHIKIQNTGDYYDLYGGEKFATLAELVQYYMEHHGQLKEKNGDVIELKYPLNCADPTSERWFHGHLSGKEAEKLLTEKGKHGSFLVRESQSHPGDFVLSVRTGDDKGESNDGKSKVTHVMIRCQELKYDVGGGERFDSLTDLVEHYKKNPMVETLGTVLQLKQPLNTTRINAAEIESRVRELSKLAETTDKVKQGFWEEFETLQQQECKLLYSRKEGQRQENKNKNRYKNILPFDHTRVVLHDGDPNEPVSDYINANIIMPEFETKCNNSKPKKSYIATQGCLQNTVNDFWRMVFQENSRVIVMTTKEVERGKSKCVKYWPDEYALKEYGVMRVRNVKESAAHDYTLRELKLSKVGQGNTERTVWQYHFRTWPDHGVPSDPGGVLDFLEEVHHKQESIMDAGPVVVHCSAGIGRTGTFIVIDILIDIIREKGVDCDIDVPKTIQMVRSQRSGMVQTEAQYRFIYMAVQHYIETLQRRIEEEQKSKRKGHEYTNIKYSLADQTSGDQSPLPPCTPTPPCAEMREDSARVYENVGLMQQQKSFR
Method: (1) SHP2 Biochemical Assay SHP2 Activity was Monitored by Measuring the Conversion of the Surrogate Substrate 6,8-Difluoromethylumbelliferyl Phosphate (DiEMUP) to the Fluorescent Product, 6,8-Difluoromethylumbelliferone (DiFMU).
SHP2 was pre-incubated with test compounds and the activating peptide pIRS1 (H2N-LN(pY) IDLDLV-(PEG) 8-LST(pY)ASINFQK-amide) for 30 min, prior to addition of the 6,8-difluoromethylumbelliferyl phosphate (DiEMUP), (Thermo Fisher D6567). Final assay concentrations were 10 pM SHP2, 0.25 μM pIRS1 peptide, 50 μM DiFMUP, 25 mM Bis-Tris propane, pH 7.0, 150 mM NaCl, 0.05% (v/v) Tween-20, 0.5 mM TCEP and 5% (v/v) DMSO. Rates of reaction were then measured over 30 min by monitoring fluorescence on a BMG Pherastar reader at excitation 360 nm/emission 450 nm. IC50 values were calculated in singlicate from the normalized dose-response plots using four parameter logistic curve fit. The Experiment for each compound was carried out in one time or multiple times, and the IC50 values were shown as a single value (for a compound measured in a single experiment) or an average value (for a compound measured in multiple experiments).

Row | SMILES | Number of cell lines sensitive [1] | Number of cell lines sensitive (% of total) [1] | partial regression (tumor shrinkage of 50% or above), mice ([2]; Compound 9 alone 50 mg/kg/day) | T/C ([2]; Compound 9 alone 50 mg/kg/day oral, once a day, Day 18) | tumor response ([2]; Compound 9 alone 50 mg/kg/day, during the treatment period) | Number of cell lines sensitive (491 cell lines) | Number of cell lines sensitive (% of total) (491 cell lines) | Number of cell lines sensitive [3] | Number of cell lines sensitive (% of total) [3] | IC50 [4] | IC50 (SHP2)
1 | COc1cc(F)cc([C@@H](CO)NC(=O)[C@@H](C)N2Cc3ccc(-c4nc(NC5CCOCC5)ncc4Cl)cc3C2=O)c1 [Compound 9, (2R)-2-(6-{5-chloro-2-[(oxan-4-yl)amino]pyrimidin-4-yl}-1-oxo-2,3-dihydro-1H-isoindol-2-yl)-N-[(1S)-1-(3-fluoro-5-methoxyphenyl)-2-hydroxyethyl]propanamide] | 204 | 51.8% | 1 out of 8 | 29% | tumor stasis | 284 | 57.8% | 80 | 82.5% | – | –
2 | CCn1cc2c(Cl)c(-c3c[nH]c4nc(N5C[C@H]6CC[C@@H]5[C@@H]6N)n(C)c(=O)c34)ccc2n1 [Compound 3, 2-((1R,4R,7R)-7-amino-2-azabicyclo[2.2.1]heptan-2-yl)-5-(4-chloro-2-ethyl-2H-indazol-5-yl)-3-methyl-3,7-dihydro-4H-pyrrolo[2,3-d]pyrimidin-4-one] | – | – | – | – | – | – | – | – | – | 35 nM | 4 nM
